From patent US5698541A, “2,4-diphosphonoglutaric acid derivatives, processes for their production and pharmaceutical agents containing these compounds” (Boehringer Mannheim GmbH, priority 1994, dated 1997)

System: non-stimulated bone resorption
Test: Inhibition of non-stimulated bone resorption by determining the excretion of [3H]-tetracycline in urine
Assay type: in vivo
Conditions: rats, subcutaneous, 2 × 200 mg/kg (8 a.m. and 5 p.m. on sixth day of urine collection); reduced [3H]-tetracycline excretion in urine on eighth day
Experimental: Inhibition of non-stimulated bone resorption by determining the excretion of [^3 H]-tetracycline in urine:
From birth onwards rats received a twice-weekly injection of increasing amounts of a solution of 3.7×10^5 Bq/ml (10 μCi/ml) [7-^3 H]-tetracycline ([^3 H]TC); New England Nuclear, Boston, Mass.) with a specific activity of 679 mCi/mmol. The volume per injection is increased from 50 μl/week to 250 μl in the fifth week and kept at this level for a further week. The total amount of administered [^3 H]TC was 20 μCi per rat. 51-day-old rats are transferred to individual metabolic cages and received a group feeding with feed which contained 0.5% Ca and 0.35% P. This feed was produced by addition of appropriate amounts of calcium and phosphate (SODI 2134, "Klingenthalmuhle"). The animals received distilled water ad libitum during the entire duration of the experiment. Collection of 24 hour urine was begun after 61 days. The urine was collected daily at 11 o'clock; the animals also received food at this time. On the sixth day after the start of the urine collection, the animals received subcutaneous injections of the substance (at 8 a.m. and 5 p.m.). […] The ^3 H-TC in urine is determined by liquid scintillation by adding 10 ml of the scintillator Pico-Fluor 30 (Packard International, Zurich, Switzerland) to 1 ml of the urine. […]

SMILES: NCCCCC(CC(C(=O)O)P(=O)(O)O)(C(=O)O)P(=O)(O)O (centres unmarked) [Example 5]
- % rel. inhibition/dosage: 45%

SMILES: O=C(O)C(CC(CCCN1CCCC1)(C(=O)O)P(=O)(O)O)P(=O)(O)O (centres unmarked) [Example 4, 2,4-diphosphono-2-pyrrolidinopropylglutaric acid]
- % rel. inhibition/dosage: 37%
